# Measurements published in PubChem BioAssay AID1259407 (Chemical Carcinogenesis Research Information System (CCRIS), 2018).
# Active and inactive are the calls of the source. How the calls were made is not given here.
# Tested on: CCRIS mutagenicity, Ames/micronucleus/aberration tests
# Assay: CCRIS mutagenicity studies
# [1] = Test System: AMES SALMONELLA TYPHIMURIUM, Strain/Indicator: TA97, Metabolic Activation: HAMSTER, LIVER, S-9, AROCLOR 1254 (10%), Method: PREINCUBATION
# [2] = Test System: AMES SALMONELLA TYPHIMURIUM, Strain/Indicator: TA97, Metabolic Activation: NONE, Method: PREINCUBATION
# [3] = Test System: AMES SALMONELLA TYPHIMURIUM, Strain/Indicator: TA97, Metabolic Activation: RAT, LIVER, S-9, AROCLOR 1254 (10%), Method: PREINCUBATION
# [4] = Test System: AMES SALMONELLA TYPHIMURIUM, Strain/Indicator: TA98, Metabolic Activation: NONE, Method: PREINCUBATION
# [5] = Test System: AMES SALMONELLA TYPHIMURIUM, Strain/Indicator: TA100, Metabolic Activation: NONE, Method: PREINCUBATION
# [6] = Test System: AMES SALMONELLA TYPHIMURIUM, Strain/Indicator: TA100, Metabolic Activation: RAT, LIVER, S-9, AROCLOR 1254 (10%), Method: PREINCUBATION
# [7] = Test System: AMES SALMONELLA TYPHIMURIUM, Strain/Indicator: TA1535, Metabolic Activation: HAMSTER, LIVER, S-9, AROCLOR 1254 (10%), Method: PREINCUBATION
# [8] = Test System: AMES SALMONELLA TYPHIMURIUM, Strain/Indicator: TA1535, Metabolic Activation: NONE, Method: PREINCUBATION
# [9] = Test System: AMES SALMONELLA TYPHIMURIUM, Strain/Indicator: TA98, Metabolic Activation: NONE, Method: STANDARD PLATE
# [10] = Test System: AMES SALMONELLA TYPHIMURIUM, Strain/Indicator: TA100, Metabolic Activation: NONE, Method: STANDARD PLATE
compound,measurement,setting,value
Cc1ccc(S(=O)(=O)NC(=O)NN2CCCCCC2)cc1,mutagenic call,[1],inactive; negative
same,mutagenic call,"Test System: AMES SALMONELLA TYPHIMURIUM, Strain/Indicator: TA97, Metabolic Activation: HAMSTER, LIVER, S-9, AROCLOR 1254 (30%), Method: PREINCUBATION",inactive; negative
same,mutagenic call,[2],inactive; negative
same,mutagenic call,"Test System: AMES SALMONELLA TYPHIMURIUM, Strain/Indicator: TA97, Metabolic Activation: RAT, LIVER, AROCLOR 1254 (30%), Method: PREINCUBATION",inactive; negative
same,mutagenic call,[3],inactive; negative
same,mutagenic call,"Test System: AMES SALMONELLA TYPHIMURIUM, Strain/Indicator: TA98, Metabolic Activation: HAMSTER, LIVER, S-9, AROCLOR 1254 (10 OR 30%), Method: PREINCUBATION",inactive; negative
same,mutagenic call,[4],inactive; negative
same,mutagenic call,"Test System: AMES SALMONELLA TYPHIMURIUM, Strain/Indicator: TA98, Metabolic Activation: RAT, LIVER, S-9, AROCLOR 1254 (10 OR 30%), Method: PREINCUBATION",inactive; negative
same,mutagenic call,"Test System: AMES SALMONELLA TYPHIMURIUM, Strain/Indicator: TA100, Metabolic Activation: HAMSTER, LIVER, S-9, AROCLOR 1254 (10 OR 30%), Method: PREINCUBATION",inactive; negative
same,mutagenic call,[5],inactive; negative
same,mutagenic call,[6],inactive; negative
same,mutagenic call,[7],inactive; negative
same,mutagenic call,"Test System: AMES SALMONELLA TYPHIMURIUM, Strain/Indicator: TA1535, Metabolic Activation: HAMSTER, LIVER, S-9, AROCLOR 1254 (30%), Method: PREINCUBATION",active; positive
same,mutagenic call,[8],inactive; negative
same,mutagenic call,"Test System: AMES SALMONELLA TYPHIMURIUM, Strain/Indicator: TA1535, Metabolic Activation: RAT, LIVER, S-9, AROCLOR 1254 (10 OR 30%), Method: PREINCUBATION",inactive; negative
NCCCCCCCCCCC(=O)O,mutagenic call,"End Point: IN VITRO CHROMOSOMAL ABERRATIONS, Test System: CHINESE HAMSTER OVARY CELLS, Metabolic Activation: NONE",inactive; negative; precipitation occurred at 1000 ug/ml
same,mutagenic call,"End Point: IN VITRO CHROMOSOMAL ABERRATIONS, Test System: CHINESE HAMSTER OVARY CELLS, Metabolic Activation: RAT, LIVER, S-9, AROCLOR 1254",inactive; negative; precipitation occurred at 1000 ug/ml
same,mutagenic call,"Test System: UDS RAT HEPATOCYTES, Strain/Indicator: BROMODEOXYURIDINE INCORP, Metabolic Activation: NONE, Method: FLOW CYTOMETRIC ANALYSIS",inactive; negative
COC(=O)c1oc([N+](=O)[O-])c(-c2ccccc2)c1-c1ccccc1,mutagenic call,"Test System: AMES SALMONELLA TYPHIMURIUM, Strain/Indicator: TA98(1,8-DNP6), Metabolic Activation: NONE, Method: STANDARD PLATE",active; positive
same,mutagenic call,"Test System: AMES SALMONELLA TYPHIMURIUM, Strain/Indicator: TA98(NR), Metabolic Activation: NONE, Method: STANDARD PLATE",inactive; negative
same,mutagenic call,[4],active; positive
same,mutagenic call,[9],active; positive
same,mutagenic call,"Test System: AMES SALMONELLA TYPHIMURIUM, Strain/Indicator: TA100(NR), Metabolic Activation: NONE, Method: STANDARD PLATE",active; positive
same,mutagenic call,[5],active; positive
same,mutagenic call,[10],active; positive
same,mutagenic call,"Test System: AMES SALMONELLA TYPHIMURIUM, Strain/Indicator: TA104, Metabolic Activation: NONE, Method: STANDARD PLATE",active; positive
O=C1OC[C@@H](Cc2cccc(O)c2)[C@@H]1Cc1cccc(O)c1,mutagenic call,"Test System: CHINESE HAMSTER V79 CELLS, Strain/Indicator: V79 CELLS (HPRT)/6-THIOGUANINE, Metabolic Activation: NONE, Method: SUSPENSION/PLATE",inactive; negative
same,mutagenic call,"Test System: CHINESE HAMSTER V-79, Strain/Indicator: V-79 (HPRT)/6-THIOGUANINE, Metabolic Activation: NONE",inactive; negative
CCC(C)c1ccc(/C=C/c2ccc(N)cc2)cc1 (stereo not drawn),mutagenic call,[9],inactive; negative
same,mutagenic call,"Test System: AMES SALMONELLA TYPHIMURIUM, Strain/Indicator: TA98, Metabolic Activation: RAT, LIVER, S-9, AROCLOR, Method: STANDARD PLATE",active; positive
same,mutagenic call,[10],inactive; negative
same,mutagenic call,"Test System: AMES SALMONELLA TYPHIMURIUM, Strain/Indicator: TA100, Metabolic Activation: RAT, LIVER, S-9, AROCLOR, Method: STANDARD PLATE",active; positive
OCCBr,mutagenic call,[1],inactive; negative
same,mutagenic call,[2],inactive; negative
same,mutagenic call,[3],inactive; negative
same,mutagenic call,"Test System: AMES SALMONELLA TYPHIMURIUM, Strain/Indicator: TA98, Metabolic Activation: HAMSTER, LIVER, S-9, AROCLOR 1254 (10%), Method: PREINCUBATION",inactive; negative
same,mutagenic call,[4],inactive; negative
same,mutagenic call,[9],inactive; negative
same,mutagenic call,"Test System: AMES SALMONELLA TYPHIMURIUM, Strain/Indicator: TA98, Metabolic Activation: RAT, LIVER, S-9, AROCLOR 1254 (10%), Method: PREINCUBATION",inactive; negative
same,mutagenic call,"Test System: AMES SALMONELLA TYPHIMURIUM, Strain/Indicator: TA98, Metabolic Activation: RAT, LIVER, S-9, AROCLOR 1254, Method: STANDARD PLATE",inactive; negative
same,mutagenic call,"Test System: AMES SALMONELLA TYPHIMURIUM, Strain/Indicator: TA100, Metabolic Activation: HAMSTER, LIVER, S-9, AROCLOR 1254 (10%), Method: PREINCUBATION",active; positive
same,mutagenic call,[5],active; positive
same,mutagenic call,[10],active; positive
same,mutagenic call,[6],active; positive
same,mutagenic call,"Test System: AMES SALMONELLA TYPHIMURIUM, Strain/Indicator: TA100, Metabolic Activation: RAT, LIVER, S-9, AROCLOR 1254, Method: STANDARD PLATE",active; positive
same,mutagenic call,[7],active; positive
same,mutagenic call,[8],active; positive
same,mutagenic call,"Test System: AMES SALMONELLA TYPHIMURIUM, Strain/Indicator: TA1535, Metabolic Activation: RAT, LIVER, S-9, AROCLOR 1254 (10%), Method: PREINCUBATION",active; positive
NC(=O)c1cc(N2CC2)c([N+](=O)[O-])cc1[N+](=O)[O-],mutagenic call,[9],inactive; negative
same,mutagenic call,[10],active; positive
same,mutagenic call,"Test System: E. COLI, Strain/Indicator: NFR-343, Metabolic Activation: NONE, Method: AGAR OVERLAY",active; positive
same,mutagenic call,"Test System: E. COLI, Strain/Indicator: NFR-343, Metabolic Activation: NONE, Method: STANDARD PLATE",active; positive
same,mutagenic call,"Test System: E. COLI, Strain/Indicator: NFR-343, Metabolic Activation: RAT, LIVER, S-9, AROCLOR 1254, Method: STANDARD PLATE",active; positive
same,mutagenic call,"Test System: E. COLI, Strain/Indicator: WP2, Metabolic Activation: NONE, Method: STANDARD PLATE",active; positive
same,mutagenic call,"Test System: E. COLI, Strain/Indicator: WP2 UVRA (PKM101), Metabolic Activation: NONE, Method: STANDARD PLATE",active; positive
same,mutagenic call,"Test System: E. COLI, Strain/Indicator: WP2 UVRA, Metabolic Activation: NONE, Method: AGAR OVERLAY",active; positive
same,mutagenic call,"Test System: E. COLI, Strain/Indicator: WP2 UVRA, Metabolic Activation: NONE, Method: STANDARD PLATE",active; positive
same,mutagenic call,"Test System: E. COLI, Strain/Indicator: WP2 UVRA, Metabolic Activation: RAT, LIVER, S-9, AROCLOR 1254, Method: STANDARD PLATE",active; positive
